What was measured:
[1] = biological target: T1, Polyunsaturated fatty acid lipoxygenase ALOX15 (Oryctolagus cuniculus, UniProt P12530); assay: biochemical; assay type: tissue-based, Reticulocytes; conditions: reticulocytes;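 also: inhibition of 15-lipoxygenase enzyme activity measured with linoleic acid as the substrate; in other assays of this panel Not Active means under 50% inhibition at 10 µM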
T1 sequence (P12530 whole entry): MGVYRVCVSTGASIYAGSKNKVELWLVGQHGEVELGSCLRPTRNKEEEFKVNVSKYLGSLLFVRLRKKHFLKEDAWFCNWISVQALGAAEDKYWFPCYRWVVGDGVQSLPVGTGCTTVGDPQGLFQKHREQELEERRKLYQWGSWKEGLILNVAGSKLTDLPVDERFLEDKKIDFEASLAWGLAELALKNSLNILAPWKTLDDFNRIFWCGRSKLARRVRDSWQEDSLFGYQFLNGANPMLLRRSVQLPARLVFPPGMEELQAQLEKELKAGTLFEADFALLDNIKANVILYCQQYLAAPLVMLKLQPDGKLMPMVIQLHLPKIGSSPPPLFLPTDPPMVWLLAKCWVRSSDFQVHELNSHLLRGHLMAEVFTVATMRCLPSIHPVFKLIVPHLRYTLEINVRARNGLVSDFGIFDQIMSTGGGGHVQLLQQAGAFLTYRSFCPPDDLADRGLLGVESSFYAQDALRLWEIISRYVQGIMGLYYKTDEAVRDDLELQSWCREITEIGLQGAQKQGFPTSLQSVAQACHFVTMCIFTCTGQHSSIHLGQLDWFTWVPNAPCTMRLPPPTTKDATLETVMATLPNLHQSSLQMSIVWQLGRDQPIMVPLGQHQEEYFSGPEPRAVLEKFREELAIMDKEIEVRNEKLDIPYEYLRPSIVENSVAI

[2] = biological target: Sigma non-opioid intracellular receptor 1 (Homo sapiens, UniProt Q99720); assay: DRUGMATRIX: Sigma1 radioligand binding (ligand: [3H] Haloperidol); assay type: cell membranes, Jurkat, Membrane; conditions: jurkat; Not Active = under 50% inhibition at 10 µM
Sigma non-opioid intracellular receptor 1, sequence (Q99720 whole entry): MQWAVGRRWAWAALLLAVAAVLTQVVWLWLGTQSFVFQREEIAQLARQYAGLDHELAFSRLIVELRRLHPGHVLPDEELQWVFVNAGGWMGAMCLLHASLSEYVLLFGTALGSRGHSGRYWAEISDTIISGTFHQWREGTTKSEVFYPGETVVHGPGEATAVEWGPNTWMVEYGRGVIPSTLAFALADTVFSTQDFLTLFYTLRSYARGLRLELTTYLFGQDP

[3] = DRUGMATRIX: beta-Lactamase enzyme inhibition (substrate: Nitrocefin); parameters: species or system Bacillus cereus; conditions: Not Active = under 50% inhibition at 10 µM
[4] = biological target: T2, Cysteinyl leukotriene receptor 1 (Homo sapiens, UniProt Q9Y271); assay type: cell membranes, CHO-K1, Membrane; conditions: cho-k1; also: in other assays of this panel Not Active means under 50% inhibition at 10 µM
T2 sequence (Q9Y271 whole entry): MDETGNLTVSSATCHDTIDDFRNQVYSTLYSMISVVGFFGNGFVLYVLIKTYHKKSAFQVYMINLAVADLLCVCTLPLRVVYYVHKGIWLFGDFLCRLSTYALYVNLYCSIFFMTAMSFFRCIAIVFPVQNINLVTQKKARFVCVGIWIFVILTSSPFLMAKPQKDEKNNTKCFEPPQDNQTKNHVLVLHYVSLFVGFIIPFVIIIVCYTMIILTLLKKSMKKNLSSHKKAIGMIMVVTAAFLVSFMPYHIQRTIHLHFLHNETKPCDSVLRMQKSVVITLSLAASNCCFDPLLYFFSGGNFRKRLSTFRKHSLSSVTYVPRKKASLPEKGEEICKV

[5] = DRUGMATRIX: Atrial Natriuretic Factor (ANF) radioligand binding (ligand: [125I] ANF (rat)); assay type: cell membranes, Cavia porcellus, Dunkin-Hartley, Adrenal gland, Membrane; conditions: Not Active = under 50% inhibition at 10 µM
[6] = biological target: T3, Muscarinic acetylcholine receptor M4 (Homo sapiens, UniProt P08173); assay type: cell membranes, CHO-K1, Membrane; conditions: cho-k1; also: in other assays of this panel Not Active means under 50% inhibition at 10 µM
T3 sequence (P08173 whole entry): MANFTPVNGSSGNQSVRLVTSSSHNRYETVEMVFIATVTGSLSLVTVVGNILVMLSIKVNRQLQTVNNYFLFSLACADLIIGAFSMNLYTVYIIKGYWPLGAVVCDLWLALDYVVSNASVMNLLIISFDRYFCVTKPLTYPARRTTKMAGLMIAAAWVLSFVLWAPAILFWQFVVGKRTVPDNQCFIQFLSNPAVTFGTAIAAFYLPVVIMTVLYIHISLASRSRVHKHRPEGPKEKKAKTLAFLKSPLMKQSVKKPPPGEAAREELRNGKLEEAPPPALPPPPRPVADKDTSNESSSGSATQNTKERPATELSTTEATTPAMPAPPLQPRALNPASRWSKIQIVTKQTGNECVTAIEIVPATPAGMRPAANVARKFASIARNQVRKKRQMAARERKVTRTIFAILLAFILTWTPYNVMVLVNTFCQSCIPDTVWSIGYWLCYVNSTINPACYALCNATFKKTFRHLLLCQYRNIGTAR

OC[C@H]1O[C@@H]2O[C@H]3[C@H](O)[C@@H](O)[C@@H](O[C@H]4[C@H](O)[C@@H](O)[C@@H](O[C@H]5[C@H](O)[C@@H](O)[C@@H](O[C@H]6[C@H](O)[C@@H](O)[C@@H](O[C@H]7[C@H](O)[C@@H](O)[C@@H](O[C@H]1[C@H](O)[C@H]2O)O[C@@H]7CO)O[C@@H]6CO)O[C@@H]5CO)O[C@@H]4CO)O[C@@H]3CO [ALFADEX]
Not Active: IC50 [1] | IC50 [2] | IC50 [3] | Ki [3] | IC50 [4] | IC50 [5] | Ki [5] | IC50 [6]

Nc1nc(F)nc2c1ncn2[C@@H]1O[C@H](CO)[C@@H](O)[C@@H]1O [FLUDARABINE]
Not Active: IC50 [1] | IC50 [2] | IC50 [3] | Ki [3] | IC50 [4] | IC50 [5] | Ki [5] | IC50 [6]

O=C(O)CO [GLYCOLIC ACID]
Not Active: IC50 [1] | IC50 [2] | IC50 [3] | Ki [3] | IC50 [4] | IC50 [5] | Ki [5] | IC50 [6]

O=C(NCCN1CCOCC1)c1ccc(Cl)cc1 [MOCLOBEMIDE]
Not Active: IC50 [1] | IC50 [2] | IC50 [3] | Ki [3] | IC50 [4] | IC50 [5] | Ki [5] | IC50 [6]

CARBOXYMETHYLCELLULOSE
Not Active: IC50 [1] | Ki [1] | IC50 [2] | Ki [2] | IC50 [3] | Ki [3] | IC50 [4] | Ki [4] | IC50 [5] | Ki [5] | IC50 [6] | Ki [6]

COc1ccccc1OCCNCC(O)COc1cccc2[nH]c3ccccc3c12 (stereo not drawn) [CARVEDILOL]
Not Active: IC50 [1] | IC50 [2] | IC50 [3] | Ki [3] | IC50 [4] | IC50 [5] | Ki [5] | IC50 [6]

NC(N)=Nc1nc(CSCCC(N)=NS(N)(=O)=O)cs1 [FAMOTIDINE]
Not Active: IC50 [1] | IC50 [2] | IC50 [3] | Ki [3] | IC50 [4] | IC50 [5] | Ki [5] | IC50 [6]

COc1ccc(C[C@H](N)C(=O)N[C@H]2[C@@H](O)[C@H](n3cnc4c(N(C)C)ncnc43)O[C@@H]2CO)cc1 [PUROMYCIN]
Not Active: IC50 [1] | IC50 [2] | IC50 [3] | Ki [3] | IC50 [4] | IC50 [5] | Ki [5] | IC50 [6]

Source: ChEMBL document CHEMBL1909046, “DrugMatrix in vitro pharmacology data”
